In US12016843B2, “Compositions and methods for the treatment of amyotrophic lateral sclerosis, parkinson's disease, parkinson's disease with dementia, dementia with lewy bodies, and multiple system atrophy” (priority 2019, dated 2024):

Columns and labels:
[1] = test system: mitochondrial respiration in brain homogenate from the infarcted area; experiment: Mitochondrial respiration (respiratory control ratio) in brain homogenate after endothelin-1 induced ischemic stroke; format: in vivo, Sprague Dawley rats; details: rats, ET-1 middle cerebral artery occlusion, 5 mg/kg sc at 24 and 4 hours prior to ischemia, measured 24 hours after onset
Description: Ischemic stroke was induced in Sprague Dawley rats via middle cerebral artery occlusion with the vasoconstrictive peptide endothelin-1 (ET-1; 240 pmol per injection). Compound Ia was administered to each rat at 24 and 4 hours prior to onset of ischemia via subcutaneous injection at 5 mg/kg. Mitochondrial respiration was measured in brain homogenate excised from the infarcted area 24 hours following the onset of ischemia using high resolution respirometry (OxyGraph 02K). Respiratory control ratio was calculated as complex I supported oxidative phosphorylation divided by Complex I linked leak respiration. Results are illustrated in FIG. 5B, ** p<0.01, one-way ANOVA.

[2] = test system: corticospinal motor neurons derived from prp-TDP-43^A315T-UeGFP mouse model; experiment: Neurite length in primary corticospinal motor neurons from prp-TDP-43^A315T-UeGFP mice; format: cell-based; details: 10 nM, 100 nM and 1000 nM, vs DMSO vehicle
Description: Studies were performed in primary cells derived from the prp-TDP-43^A315T-UeGFP mouse model (Gautam, et al. Acta Neuropathol. 2019 January; 137(1): 47-69). Briefly, these mice express a pathogenic human TDP43 transgene which leads to severe structural alterations in the mitochondria, nucleus, and endoplasmic reticulum on the background of an eGFP reporter mouse. Both transgene (prp) and reporter (UCHL1) are driven by tissue specific promoter elements, leading to the generation of fluorescent green corticospinal motor neurons carrying the TDP43 mutation. Utilizing the endogenous fluorescence of the eGFP reporter, corticospinal motor neurons can be directly visualized in situ. Mixed cortical cultures were derived from the brains of prp-TDP-43^A315T-UeGFP mice and allowed to divide in serum free minimal medium for 3 cell divisions. Culture media +/− drug was removed and replenished daily. Doses of Compound Ia utilized in the experiment were 10 nM; 100 nM and 1000 nM. Drug was prepared in DMSO vehicle, and DMSO was used as vehicle control (<1% volume/volume). Cells were imaged using standard fluorescent microscopy techniques. Neurite length was calculated using automated imaging software (NIH Image J) on GFP expressing cells. Three independent biological replicates were performed, with a minimum of 10 motor neurons imaged per each replicate. […]

Structure (SMILES): Cc1cc(O)cc(C)c1C[C@H](NC(=O)[C@H](N)CCCNC(=N)N)C(=O)N[C@@H](CCCCN)c1nc(Cc2ccccc2)no1.Cl.Cl.Cl [Compound Ia, (R)-2-amino-N—((S)-1-(((S)-5-amino-1-(3-benzyl-1,2,4-oxadiazol-5-yl)pentyl)amino)-3-(4-hydroxy-2,6-dimethylphenyl)-1-oxopropan-2-yl)-5-guanidinopentanamide·3HCl]
- mitochondrial respiration in brain (respiratory control ratio) [1]: restored mitochondrial respiration in brain
- average neurite length per cell [2]: improved neurite length at all doses assessed
